Numbered stars: 1 amine (or outer) side, 2 acyl side, 3 side chain; on linkers, the order of the positions; unused ones are H or OH. Square brackets hold non-standard residues; d marks the D form. Peptide text beside a SMILES is read from it. * marks the point of attachment. Exatecan = CC[C@@]1(O)C(=O)OCc2c1cc1n(c2=O)Cc2c-1nc1cc(F)c(C)c3c1c2[C@@H](N*)CC3; Propanoyl(3-maleimido) = O=C1C=CC(=O)N1CCC(=O)*; PABC = O=C(OCc1ccc(N[*:1])cc1)[*:2]
Experiment: Aggregation studies: % monomer by SEC after conjugation to test monoclonal antibody
Assay type: physicochemical
Conditions: 95% monomer or greater assessed as low aggregation
Procedure: Aggregation is a process in which molecules self-associate with each other. In the context of the present invention, aggregation levels are assessed during the conjugation of a linker construct to an antibody. During conjugation, aggregation is quantified in terms of percentage monomer content. High percentage monomer values typically equate to a lower degree of aggregation. Percentage monomer values of 93% or 95% or higher typically mean negligible levels of aggregation or none, whereas values below this threshold typically translate to higher levels of aggregation.
2 mg of test monoclonal antibody at 8.87 mg/mL was pH adjusted with 5% 0.5 M Tris, 0.025 M EDTA, pH 8.5 and reduced with 2.3 mol. eq TCEP and then conjugated with 6 mol. eq drug linker. […] Percentage monomer values of 95% or greater are assessed as low aggregation.
Aggregation levels were assessed during the conjugation to the test antibody.
During conjugation, we are ideally targeting a monomer content or percentage monomer of 95% or above. Low percentage monomer values usually translate to a higher degree of aggregation. One could therefore agree that percentage monomer values of 95% or higher mean very low levels of aggregation or none, whereas values below this threshold often translate to higher levels of aggregation.

## CC[C@@]1(O)C(=O)OCc2c1cc1n(c2=O)Cc2c-1nc1cc(F)c(C)c3c1c2[C@@H](NC(=O)OCc1ccc(NC(=O)[C@H](C)NC(=O)[C@@H](NC(=O)CNC(=O)CNC(=O)CNC(=O)CNC(=O)CNC(=O)CCN2C(=O)C=CC2=O)C(C)C)cc1)CC3 [Mal-Gly5-VA-PABC-Exatecan] ({Propanoyl(3-maleimido)}-GGGGGVA[PABC]-Exatecan)
  Aggregation (grade in words): None

— patent publication US20260273084A1, “ANTIBODY-DRUG CONJUGATES” (ADC THERAPEUTICS SA, priority 2023, published 2026)
